Test results taken from ChEMBL document CHEMBL4130620, “Disconnecting the Estrogen Receptor Binding Properties and Antimicrobial Properties of Parabens through 3,5-Substitution” (ACS Med Chem Lett, 2018).
≈ marks a conversion by molar mass, not a printed value.

Tests used:
MCF7 [1] = assay type: ADME, cell-based; conditions: human, mcf7, 24 h
MCF7 [2] = assay type: toxicity, cell-based; conditions: human
[3] = molecular target: T1, Estrogen receptor alpha (ERalpha) (Homo sapiens, UniProt P03372); test: Safety index, ratio of IC50 for test compound to IC50 for paraben for displacement of Fluor.ES2 Green from human ERalpha by TR-FRET competitive binding assay; conditions: probe Fluor.ES2 Green, read-out: Ratio IC50
T1 sequence (P03372 whole entry): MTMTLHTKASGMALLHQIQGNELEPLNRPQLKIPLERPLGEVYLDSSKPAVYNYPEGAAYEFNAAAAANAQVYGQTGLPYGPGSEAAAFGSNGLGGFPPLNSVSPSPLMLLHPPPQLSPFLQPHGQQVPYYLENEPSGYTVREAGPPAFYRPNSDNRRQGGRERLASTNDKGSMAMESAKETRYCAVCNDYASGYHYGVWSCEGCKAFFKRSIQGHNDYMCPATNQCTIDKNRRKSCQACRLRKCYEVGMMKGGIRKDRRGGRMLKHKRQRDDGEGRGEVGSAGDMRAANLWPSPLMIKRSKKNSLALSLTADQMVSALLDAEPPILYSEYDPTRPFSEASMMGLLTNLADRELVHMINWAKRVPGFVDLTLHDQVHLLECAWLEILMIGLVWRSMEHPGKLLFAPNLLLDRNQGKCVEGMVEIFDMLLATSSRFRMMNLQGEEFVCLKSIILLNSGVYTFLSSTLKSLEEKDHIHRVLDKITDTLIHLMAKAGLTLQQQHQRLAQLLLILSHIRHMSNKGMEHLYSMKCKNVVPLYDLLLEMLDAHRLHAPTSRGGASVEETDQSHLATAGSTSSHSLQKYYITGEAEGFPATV

Estrogen receptor = molecular target: T2, Estrogen receptor (Homo sapiens, UniProt P03372)
T2 sequence (P03372 whole entry): T1 sequence (P03372 whole entry)
Description: Displacement of Fluor.ES2 Green from human ERalpha by TR-FRET competitive binding assay

Staphylococcus aureus = test: microbe, parasite or virus in culture; conditions: 155554A, 16 h
Description: Antibacterial activity against Staphylococcus aureus 155554A incubated for 16 hrs by microdilution assay

MCF7 [4] = assay type: toxicity, cell-based; conditions: human; remark: listed apart in the source
[5] = Solubility of the compound at >512 ug/ml; assay type: physicochemical
[6] = molecular target: T1, Estrogen receptor alpha (ERalpha); test: Displacement of Fluor.ES2 Green from human ERalpha at 100000 nM by TR-FRET competitive binding assay; conditions: probe Fluor.ES2 Green

With `CCOC(=O)c1ccc(O)cc1` [ETHYLPARABEN] the Activity (MCF7 [1]) was “Toxic”.
In the case of `CCCCCCCCOC(=O)c1cc([N+](=O)[O-])c(O)c([N+](=O)[O-])c1`, the Activity (MCF7 [2]) is reported as “Non-Toxic”, the selectivity ratio [3] is reported as 20 to 40 and the IC50 (Estrogen receptor) is reported as 60.4 µM. The MIC (Staphylococcus aureus) was 47 µM (≈ 16 µg/mL), the Activity (MCF7 [1]) was “Non-Toxic” and the Activity (MCF7 [4]) was “Non-Toxic”.
For `CCCCOC(=O)c1cc(Cl)c(O)c(Cl)c1`, the selectivity ratio [3] was 20 to 40, the IC50 (Estrogen receptor) was 55.3 µM and the MIC (Staphylococcus aureus) was 245 µM (≈ 64.5 µg/mL). The Activity (MCF7 [1]) was “Non-Toxic”.
With `CCCCOC(=O)c1cc(O)c(O)c(O)c1` [BUTYL GALLATE] the IC50 (Estrogen receptor) was 8.97 µM, the MIC (Staphylococcus aureus) was 2060 µM (≈ 465 µg/mL) and the Activity (MCF7 [1]) was “Non-Toxic”.
For `CCCCOC(=O)c1cc(Br)c(O)c(Br)c1`, the Activity (MCF7 [2]) was “Non-Toxic”, the selectivity ratio [3] was 20 to 40 and the IC50 (Estrogen receptor) was 39.4 µM. The MIC (Staphylococcus aureus) was 91 µM (≈ 32 µg/mL), the Activity (MCF7 [1]) was “Non-Toxic” and the Activity (MCF7 [4]) was “Non-Toxic”.
With `CCCCCCCCOC(=O)c1cc(I)c(O)c(I)c1` the Activity (MCF7 [2]) was “Non-Toxic”, the selectivity ratio [3] was 20 to 40 and the IC50 (Estrogen receptor) was 13.2 µM. The MIC (Staphylococcus aureus) was 31.8 µM (≈ 16 µg/mL), the Activity (MCF7 [1]) was “Non-Toxic” and the Activity (MCF7 [4]) was “Non-Toxic”.
For `CCCCOC(=O)c1ccc(O)c(I)c1`, the IC50 (Estrogen receptor) was 7.98 µM, the MIC (Staphylococcus aureus) was 199 µM (≈ 63.7 µg/mL) and the Activity (MCF7 [1]) was “Non-Toxic”.
In the case of `CCCCOC(=O)c1cc(I)c(O)c(I)c1`, the Activity (MCF7 [2]) is reported as “Non-Toxic”, the selectivity ratio [3] is reported as 20 to 40 and the IC50 (Estrogen receptor) is reported as 34.6 µM. The MIC (Staphylococcus aureus) was 36 µM (≈ 16.1 µg/mL), the Activity (MCF7 [1]) was “Non-Toxic” and the Activity (MCF7 [4]) was “Non-Toxic”.
With `CCCCOC(=O)c1cc(C)c(O)c(C)c1` the selectivity ratio [3] was 20 to 40, the IC50 (Estrogen receptor) was 32.5 µM and the MIC (Staphylococcus aureus) was over 1040 µM. For the same molecule, the solubility [5] was “Insoluble” and the Activity (MCF7 [1]) was “Non-Toxic”.
With `CCCCOC(=O)c1ccc(O)c(Br)c1` the IC50 (Estrogen receptor) was 8.21 µM, the MIC (Staphylococcus aureus) was 236 µM (≈ 64.5 µg/mL) and the Activity (MCF7 [1]) was “Non-Toxic”.
For `CCCCCCCCOC(=O)c1cc(C)c(O)c(C)c1`, the selectivity ratio [3] was 20 to 40, the IC50 (Estrogen receptor) was 16.2 µM and the MIC (Staphylococcus aureus) was 213 µM (≈ 59.3 µg/mL). The Activity (MCF7 [1]) was “Non-Toxic”.
Molecule `CCCCOC(=O)c1c(F)c(F)c(O)c(F)c1F` has a selectivity ratio [3] of 20 to 40, an IC50 (Estrogen receptor) of 29.4 µM and an MIC (Staphylococcus aureus) of 483 µM (≈ 129 µg/mL). The Activity (MCF7 [1]) was “Non-Toxic”.
`CCCCOC(=O)c1cc([N+](=O)[O-])c(O)c([N+](=O)[O-])c1` gave a selectivity ratio [3] of 20 to 40, an IC50 (Estrogen receptor) of over 200 µM and an MIC (Staphylococcus aureus) of 1810 µM (≈ 514 µg/mL). The inhibition at 100 µM [6] was 20% and the Activity (MCF7 [1]) was “Non-Toxic”.
In the case of `CCCCCCCCOC(=O)c1cc(O)c(O)c(O)c1` [OCTYL_GALLATE], the selectivity ratio [3] is reported as 20 to 40, the IC50 (Estrogen receptor) is reported as 8.74 µM and the MIC (Staphylococcus aureus) is reported as 210 µM (≈ 59.3 µg/mL). The Activity (MCF7 [1]) was “Non-Toxic”.
For `CCCCOC(=O)c1cc(OC)c(O)c(OC)c1`, the selectivity ratio [3] was 20 to 40, the IC50 (Estrogen receptor) was over 200 µM and the MIC (Staphylococcus aureus) was 924 µM (≈ 235 µg/mL). The solubility [5] was “Insoluble”, the inhibition at 100 µM [6] was 20% and the Activity (MCF7 [1]) was “Non-Toxic”.
With `CCCCOC(=O)c1ccc(O)cc1` [BUTYLPARABEN] the MIC (Staphylococcus aureus) was 1320 µM (≈ 256 µg/mL) and the Activity (MCF7 [1]) was “Toxic”.
Molecule `CC1(C)S[C@@H]2[C@H](NC(=O)Cc3ccccc3)C(=O)N2[C@H]1C(=O)O` [PENICILLIN G] has an MIC (Staphylococcus aureus) of 0.749 µM (≈ 0.25 µg/mL).
For `CCCCOC(=O)c1cc(C(C)(C)C)c(O)c(C(C)(C)C)c1`, the selectivity ratio [3] was 20 to 40, the IC50 (Estrogen receptor) was over 200 µM and the MIC (Staphylococcus aureus) was 834 µM (≈ 256 µg/mL). The solubility [5] was “Insoluble”, the inhibition at 100 µM [6] was 20% and the Activity (MCF7 [1]) was “Non-Toxic”.
